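Step 1: Grow cells in 96-well plates. Step 2: Expose to compound for 48 hours at 5 concentrations. Step 3: Interpolate endpoints linearly; if unreached, use highest concentration. Definition used: TGI = concentration required for complete inhibition of growth.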
How the values were obtained:
Assay in all cases: NCI-60 cell line screen, 48 h
786-0 renal = tested on: 786-0 renal
A498 renal = tested on: A498 renal
A549 NSCLC = tested on: A549 NSCLC
ACHN renal = tested on: ACHN renal
BT-549 breast = tested on: BT-549 breast
CAKI-1 renal = tested on: CAKI-1 renal
CCRF-CEM leukemia = tested on: CCRF-CEM leukemia
COLO 205 colon = tested on: COLO 205 colon
DU-145 prostate = tested on: DU-145 prostate
EKVX NSCLC = tested on: EKVX NSCLC
HCC-2998 colon = tested on: HCC-2998 colon
HCT-116 colon = tested on: HCT-116 colon
HCT-15 colon = tested on: HCT-15 colon
HL-60(TB) leukemia = tested on: HL-60(TB) leukemia
HOP-62 NSCLC = tested on: HOP-62 NSCLC
HOP-92 NSCLC = tested on: HOP-92 NSCLC
HS 578T breast = tested on: HS 578T breast
HT29 colon = tested on: HT29 colon
IGROV1 ovarian = tested on: IGROV1 ovarian
K-562 leukemia = tested on: K-562 leukemia
KM12 colon = tested on: KM12 colon
M14 melanoma = tested on: M14 melanoma
MALME-3M melanoma = tested on: MALME-3M melanoma
MCF7 breast = tested on: MCF7 breast
MDA-MB-231 breast = tested on: MDA-MB-231 breast
MDA-MB-435 = tested on: MDA-MB-435
MDA-N = tested on: MDA-N
MOLT-4 leukemia = tested on: MOLT-4 leukemia
NCI-H226 lung = tested on: NCI-H226 lung
NCI-H23 lung = tested on: NCI-H23 lung
NCI-H460 lung = tested on: NCI-H460 lung
NCI-H522 lung = tested on: NCI-H522 lung
NCI/ADR-RES ovarian = tested on: NCI/ADR-RES ovarian
OVCAR-3 ovarian = tested on: OVCAR-3 ovarian
OVCAR-4 ovarian = tested on: OVCAR-4 ovarian
OVCAR-5 ovarian = tested on: OVCAR-5 ovarian
OVCAR-8 ovarian = tested on: OVCAR-8 ovarian
PC-3 prostate = tested on: PC-3 prostate
RPMI-8226 leukemia = tested on: RPMI-8226 leukemia
RXF 393 renal = tested on: RXF 393 renal
SF-268 CNS = tested on: SF-268 CNS
SF-295 CNS = tested on: SF-295 CNS
SF-539 CNS = tested on: SF-539 CNS
SK-MEL-2 melanoma = tested on: SK-MEL-2 melanoma
SK-MEL-28 melanoma = tested on: SK-MEL-28 melanoma
SK-MEL-5 melanoma = tested on: SK-MEL-5 melanoma
SK-OV-3 ovarian = tested on: SK-OV-3 ovarian
SN12C renal = tested on: SN12C renal
SNB-19 CNS = tested on: SNB-19 CNS
SR leukemia = tested on: SR leukemia
SW-620 colon = tested on: SW-620 colon
T-47D breast = tested on: T-47D breast
TK-10 renal = tested on: TK-10 renal
U251 CNS = tested on: U251 CNS
UACC-257 melanoma = tested on: UACC-257 melanoma
UACC-62 melanoma = tested on: UACC-62 melanoma
UO-31 renal = tested on: UO-31 renal
LOX IMVI melanoma = tested on: LOX IMVI melanoma
SNB-75 CNS = tested on: SNB-75 CNS

Measured: TGI

Cc1ccc(/C=N\NC(=O)c2ccncc2)s1
> 100 µM: 786-0 renal | A498 renal | A549 NSCLC | ACHN renal | BT-549 breast | CAKI-1 renal | CCRF-CEM leukemia | COLO 205 colon | DU-145 prostate | EKVX NSCLC | HCC-2998 colon | HCT-116 colon | HCT-15 colon | HL-60(TB) leukemia | HOP-62 NSCLC | HOP-92 NSCLC | HS 578T breast | HT29 colon | IGROV1 ovarian | K-562 leukemia | KM12 colon | M14 melanoma | MALME-3M melanoma | MCF7 breast | MDA-MB-231 breast | MDA-MB-435 | MDA-N | MOLT-4 leukemia | NCI-H226 lung | NCI-H23 lung | NCI-H460 lung | NCI-H522 lung | NCI/ADR-RES ovarian | OVCAR-3 ovarian | OVCAR-4 ovarian | OVCAR-5 ovarian | OVCAR-8 ovarian | PC-3 prostate | RPMI-8226 leukemia | RXF 393 renal | SF-268 CNS | SF-295 CNS | SF-539 CNS | SK-MEL-2 melanoma | SK-MEL-28 melanoma | SK-MEL-5 melanoma | SK-OV-3 ovarian | SN12C renal | SNB-19 CNS | SR leukemia | SW-620 colon | T-47D breast | TK-10 renal | U251 CNS | UACC-257 melanoma | UACC-62 melanoma | UO-31 renal

COc1ccc(C2SCC(=O)N2NC(=O)C(C)Oc2ccc(Cl)cc2Cl)cc1 (stereo unspecified)
52.6 µM: OVCAR-4 ovarian
96.3 µM: SK-MEL-28 melanoma
> 100 µM: A549 NSCLC | ACHN renal | COLO 205 colon | DU-145 prostate | EKVX NSCLC | HCC-2998 colon | HCT-116 colon | HCT-15 colon | HS 578T breast | HT29 colon | IGROV1 ovarian | KM12 colon | LOX IMVI melanoma | M14 melanoma | MCF7 breast | MDA-MB-435 | MDA-N | NCI-H23 lung | NCI-H460 lung | NCI-H522 lung | NCI/ADR-RES ovarian | OVCAR-3 ovarian | OVCAR-5 ovarian | OVCAR-8 ovarian | RPMI-8226 leukemia | SF-268 CNS | SF-295 CNS | SK-MEL-2 melanoma | SK-MEL-5 melanoma | SK-OV-3 ovarian | SN12C renal | SNB-19 CNS | SW-620 colon | T-47D breast | TK-10 renal | U251 CNS | UACC-257 melanoma | UACC-62 melanoma | UO-31 renal
76.4 µM: A498 renal
33.6 µM: NCI-H226 lung
35.9 µM: SF-539 CNS
34.8 µM: HL-60(TB) leukemia
41.7 µM: 786-0 renal
52.8 µM: BT-549 breast
63.6 µM: HOP-92 NSCLC
81 µM: MDA-MB-231 breast
89.8 µM: K-562 leukemia
51.1 µM: SNB-75 CNS
48.2 µM: HOP-62 NSCLC
75.6 µM: PC-3 prostate
17.3 µM: SR leukemia
59.2 µM: RXF 393 renal
94.6 µM: MOLT-4 leukemia
47.3 µM: CAKI-1 renal

CCOC(=O)c1c(N)sc2c1C(C(=O)OCC)CCC2 (stereo unspecified)
> 100 µM: 786-0 renal | A498 renal | A549 NSCLC | ACHN renal | BT-549 breast | CCRF-CEM leukemia | COLO 205 colon | EKVX NSCLC | HCC-2998 colon | HCT-116 colon | HCT-15 colon | HL-60(TB) leukemia | HOP-62 NSCLC | HOP-92 NSCLC | HS 578T breast | HT29 colon | IGROV1 ovarian | K-562 leukemia | KM12 colon | M14 melanoma | MALME-3M melanoma | MCF7 breast | MDA-MB-231 breast | MDA-N | MOLT-4 leukemia | NCI-H226 lung | NCI-H23 lung | NCI-H460 lung | OVCAR-5 ovarian | OVCAR-8 ovarian | PC-3 prostate | RPMI-8226 leukemia | RXF 393 renal | SK-MEL-2 melanoma | SK-MEL-28 melanoma | SK-MEL-5 melanoma | SN12C renal | SNB-19 CNS | SNB-75 CNS | SR leukemia | SW-620 colon | T-47D breast | TK-10 renal | U251 CNS | UACC-257 melanoma | UACC-62 melanoma | UO-31 renal

CN1c2ccccc2S(=O)(=O)n2c(CCc3ccccc3)nnc21
> 100 µM: 786-0 renal | A498 renal | A549 NSCLC | ACHN renal | BT-549 breast | CAKI-1 renal | CCRF-CEM leukemia | COLO 205 colon | DU-145 prostate | EKVX NSCLC | HCC-2998 colon | HCT-116 colon | HCT-15 colon | HL-60(TB) leukemia | HOP-62 NSCLC | HS 578T breast | HT29 colon | IGROV1 ovarian | K-562 leukemia | KM12 colon | LOX IMVI melanoma | M14 melanoma | MCF7 breast | MDA-MB-231 breast | MDA-MB-435 | MDA-N | MOLT-4 leukemia | NCI-H226 lung | NCI-H23 lung | NCI-H460 lung | NCI-H522 lung | NCI/ADR-RES ovarian | OVCAR-3 ovarian | OVCAR-4 ovarian | OVCAR-5 ovarian | OVCAR-8 ovarian | PC-3 prostate | RXF 393 renal | SF-268 CNS | SF-295 CNS | SF-539 CNS | SK-MEL-2 melanoma | SK-MEL-28 melanoma | SK-MEL-5 melanoma | SK-OV-3 ovarian | SN12C renal | SNB-19 CNS | SW-620 colon | T-47D breast | TK-10 renal | U251 CNS | UACC-257 melanoma | UACC-62 melanoma | UO-31 renal
98.7 µM: HOP-92 NSCLC

Source: PubChem BioAssay (NCI)
